From ChEMBL document CHEMBL4038308, “Lipophosphonoxins II: Design, Synthesis, and Properties of Novel Broad Spectrum Antibacterial Agents” (J Med Chem, 2017) come the findings set out here.

≈ marks a conversion by molar mass, not a printed value. Calls of active or inactive are those of the source. The rule behind the calls is not given here.

Assay [1] concerns Bacillus subtilis. Kind of assay: Antibacterial activity against Bacillus subtilis assessed as inhibition of DNA synthesis at 2 mg/L after 50 mins by [3H]thymidine incorporation assay. Format: functional. A general note: Incorporation of labelled thymidine or its analogues reports DNA synthesis.
Assay [2] has as its system Bacillus subtilis. As to the kind of experiment: Antibacterial activity against Bacillus subtilis assessed as inhibition of plasma membrane lipids synthesis at 2 mg/L after 50 mins by [3H]-sodium acetate incorporation assay. It counts as functional.
For assay [3], the system named is Bacillus subtilis. As to the kind of experiment: Antibacterial activity against Bacillus subtilis assessed as inhibition of protein synthesis at 2 mg/L after 50 mins by [35S]-methionine incorporation assay. It counts as functional.
The test system of assay [4] is Bacillus subtilis. As to the kind of experiment: Antibacterial activity against Bacillus subtilis assessed as inhibition of peptidoglycan synthesis at 2 mg/L after 50 mins by [3H]-N-acetylglucosamine incorporation assay. Format: functional.
For assay [5], the system named is Bacillus subtilis. Kind of assay: Antibacterial activity against Bacillus subtilis assessed as inhibition of RNA synthesis at 2 mg/L after 50 mins by [3H]-uridine incorporation assay. It counts as functional.
The subject of a further assay is Burkholderia multivorans. As to the kind of experiment: Antibacterial activity against Burkholderia multivorans after 24 hrs by microdilution method. Format: functional.
Another assay relates to Acinetobacter baumannii. As to the kind of experiment: Antibacterial activity against Acinetobacter baumannii A3-08 after 24 hrs by microdilution method. It counts as functional. The settings on record: A3-08, 24 h. (In general: In broth dilution the organism is exposed to a series of concentrations in liquid medium.)
Assay [6] deals with Escherichia coli. As to the kind of experiment: Antibacterial activity against Escherichia coli 16702 after 24 hrs by microdilution method. Format: functional. To be noted: Escherichia coli, 16702, 24 h.
The next assay deals with Lipid bilayer. As to the kind of experiment: Binding affinity to DOPG large unilamellar vesicle assessed as carboxyfluorescein leakage at 10 mg/L after 20 secs by fluorescence-based assay relative to control.
Assay [7] relates to Pseudomonas aeruginosa. Kind of assay: Antibacterial activity against Pseudomonas aeruginosa CCM 3955 after 24 hrs by microdilution method. Format: functional. The settings on record: CCM 3955, 24 h.
Assay [8] deals with Bacillus subtilis. As to the kind of experiment: Antibacterial activity against Bacillus subtilis after 24 hrs by microdilution method. Format: functional.
Assay [9] concerns Escherichia coli. Kind of assay: Antibacterial activity against Escherichia coli CCM 3954 after 24 hrs by microdilution method. Format: functional. To be noted: CCM 3954, 24 h.
Another assay has as its system Enterococcus faecalis. Kind of assay: Antibacterial activity against Enterococcus faecalis CCM 4224 after 24 hrs by microdilution method. The settings on record: CCM 4224, 24 h. Format: functional.
The next assay deals with Enterococcus faecium. Kind of assay: Antibacterial activity against vancomycin-resistant Enterococcus faecium 419/ana clinical isolates after 24 hrs by microdilution method. It counts as functional.
The subject of assay [10] is Staphylococcus aureus. Kind of assay: Antibacterial activity against methicillin-resistant Staphylococcus aureus 4591 clinical isolates after 24 hrs by microdilution method. It counts as functional. The settings on record: Staphylococcus aureus, 4591, 24 h.
In assay [11] the test system is Pseudomonas aeruginosa. Kind of assay: Antibacterial activity against Pseudomonas aeruginosa 16575 after 24 hrs by microdilution method. It counts as functional. The settings on record: Pseudomonas aeruginosa, 16575, 24 h.
For the next assay, the system named is Streptococcus agalactiae. Kind of assay: Antibacterial activity against Streptococcus agalactiae after 24 hrs by microdilution method. It counts as functional.
Assay [12] relates to Staphylococcus epidermidis. As to the kind of experiment: Antibacterial activity against Staphylococcus epidermidis 8700/B after 24 hrs by microdilution method. Format: functional.
Assay [13] deals with Staphylococcus haemolyticus. As to the kind of experiment: Antibacterial activity against fluoroquinolne-resistant Staphylococcus haemolyticus 16568 after 24 hrs by microdilution method. Format: functional. The settings on record: Staphylococcus haemolyticus, 16568, 24 h.
The subject of assay [14] is Staphylococcus aureus. Kind of assay: Antibacterial activity against Staphylococcus aureus CCM 4223 after 24 hrs by microdilution method. It counts as functional. The settings on record: CCM 4223, 24 h.
Another assay deals with Salmonella enteritidis. As to the kind of experiment: Antibacterial activity against Salmonella enteritidis S2-25 after 24 hrs by microdilution method. The settings on record: Salmonella enterica, S2-25, 24 h. It counts as functional, Salmonella enterica subsp. enterica serovar Enteritidis.
In assay [15] the test system is Stenotrophomonas maltophilia. Kind of assay: Antibacterial activity against Stenotrophomonas maltophilia S2-23 after 24 hrs by microdilution method. The settings on record: S2-23, 24 h. It counts as functional.
For assay [16], the system named is Bacillus subtilis. As to the kind of experiment: Antibacterial activity against Bacillus subtilis assessed as inhibition of peptidoglycan synthesis at 100 mg/L after 50 mins by [3H]-N-acetylglucosamine incorporation assay. It counts as functional.
The subject of assay [17] is Bacillus subtilis. Kind of assay: Antibacterial activity against Bacillus subtilis assessed as inhibition of plasma membrane lipids synthesis at 100 mg/L after 50 mins by [3H]-sodium acetate incorporation assay. Format: functional.
The test system of assay [18] is Bacillus subtilis. As to the kind of experiment: Antibacterial activity against Bacillus subtilis assessed as inhibition of DNA synthesis at 100 mg/L after 50 mins by [3H]thymidine incorporation assay. It counts as functional.
The test system of assay [19] is Bacillus subtilis. As to the kind of experiment: Antibacterial activity against Bacillus subtilis assessed as inhibition of protein synthesis at 100 mg/L after 50 mins by [35S]-methionine incorporation assay. Format: functional.
The test system of assay [20] is Bacillus subtilis. Kind of assay: Antibacterial activity against Bacillus subtilis assessed as inhibition of RNA synthesis at 100 mg/L after 50 mins by [3H]-uridine incorporation assay. It counts as functional.
A short description of assay [21]: Pore forming activity across black lipid bilayer membranes assessed as induction of variation in membrane current by measuring pore conductance at 5 ug/ml.

On to `CC1(C)S[C@@H]2[C@H](NC(=O)[C@H](N)c3ccccc3)C(=O)N2[C@H]1C(=O)O`, for which the inhibition entry with Bacillus subtilis [1], in the assay with Bacillus subtilis [2], in the assay on Bacillus subtilis [3], in the assay with Bacillus subtilis [4] and in the assay with Bacillus subtilis [5] was “Active” each time.

Broadly, the MIC is the least concentration at which growth counts as inhibited. With `CCCCCCCCCCCCCCOP(=O)(CCN(CCCNC(=N)N)CCCNC(=N)N)OC[C@H]1O[C@@H](n2ccc(=O)[nH]c2=O)[C@H](O)[C@@H]1O` (some centres undefined), the MIC in the assay on Burkholderia multivorans turned out to be 100 mg/L (≈ 134 µM); against Acinetobacter baumannii, 12.5 mg/L (≈ 16.8 µM); in the assay with Escherichia coli [6], 3.13 mg/L (≈ 4.2 µM); in the assay on Pseudomonas aeruginosa [7] it was 3.13 mg/L (≈ 4.2 µM); in the assay on Bacillus subtilis [8] it was 1.56 mg/L (≈ 2.09 µM); with Escherichia coli [9], 3.13 mg/L (≈ 4.2 µM). The MIC in the assay with Enterococcus faecalis was found to be 12.5 mg/L (≈ 16.8 µM); against Enterococcus faecium, 50 mg/L (≈ 67 µM); in the assay with Staphylococcus aureus [10], 6.25 mg/L (≈ 8.38 µM); in the assay on Pseudomonas aeruginosa [11], 6.25 mg/L (≈ 8.38 µM); in the assay with Streptococcus agalactiae it was 3.13 mg/L (≈ 4.2 µM); in assay [12] it was 3.13 mg/L (≈ 4.2 µM). In addition, the MIC came out at 3.13 mg/L (≈ 4.2 µM) in [13], 6.25 mg/L (≈ 8.38 µM) in the assay on Staphylococcus aureus [14], 3.13 mg/L (≈ 4.2 µM) in the assay with Salmonella enteritidis and 12.5 mg/L (≈ 16.8 µM) in assay [15]. Besides, the result in the assay on Lipid bilayer was Active.

Take `C/C=C/C/C=C/CCC(=O)[C@H]1O[C@H]1C(N)=O`: the inhibition entry in the assay on Bacillus subtilis [16], with Bacillus subtilis [17], with Bacillus subtilis [18], in the assay with Bacillus subtilis [19] and in the assay on Bacillus subtilis [20] was “Active” each time.

`CCn1cc(C(=O)O)c(=O)c2ccc(C)nc21`: the inhibition entry in the assay on Bacillus subtilis [16], with Bacillus subtilis [17], in the assay with Bacillus subtilis [18], with Bacillus subtilis [19] and in the assay on Bacillus subtilis [20] was “Active” each time.

Regarding `CCCCCCCCCC(=O)N[C@@H](Cc1c[nH]c2ccccc12)C(=O)N[C@@H](CC(N)=O)C(=O)N[C@@H](CC(=O)O)C(=O)N[C@@H]1C(=O)NCC(=O)N[C@@H](CCCN)C(=O)N[C@@H](CC(=O)O)C(=O)N[C@H](C)C(=O)N[C@@H](CC(=O)O)C(=O)NCC(=O)N[C@H](CO)C(=O)N[C@@H]([C@H](C)CC(=O)O)C(=O)N[C@@H](CC(=O)c2ccccc2N)C(=O)O[C@@H]1C`, the Activity in [21] amounted to 500 pS.

Take `CCCCCCCCCCCCCCCCOP(=O)(CCN(CCCNC(=N)N)CCCNC(=N)N)OC[C@H]1O[C@@H](n2ccc(=O)[nH]c2=O)[C@H](O)[C@@H]1O` (some centres undefined): the MIC against Burkholderia multivorans was 50 mg/L (≈ 64.6 µM); against Acinetobacter baumannii, 3.13 mg/L (≈ 4.04 µM); in the assay with Escherichia coli [6] it was 1.56 mg/L (≈ 2.02 µM); against Pseudomonas aeruginosa [7], 3.13 mg/L (≈ 4.04 µM); against Bacillus subtilis [8], 0.78 mg/L (≈ 1.01 µM); against Escherichia coli [9] it was 1.56 mg/L (≈ 2.02 µM). For the same molecule, the MIC against Enterococcus faecalis worked out at 6.25 mg/L (≈ 8.08 µM); in the assay on Enterococcus faecium, 25 mg/L (≈ 32.3 µM); in the assay with Staphylococcus aureus [10], 3.13 mg/L (≈ 4.04 µM); with Pseudomonas aeruginosa [11], 3.13 mg/L (≈ 4.04 µM); in the assay with Streptococcus agalactiae, 1.56 mg/L (≈ 2.02 µM); in [12] it was 1.56 mg/L (≈ 2.02 µM). Also, the minimal inhibitory concentration (MIC) in [13] stood at 1.56 mg/L (≈ 2.02 µM); in the assay on Staphylococcus aureus [14], 3.13 mg/L (≈ 4.04 µM); with Salmonella enteritidis it was 1.56 mg/L (≈ 2.02 µM); in assay [15], 1.56 mg/L (≈ 2.02 µM).

Turning to `CO[C@H]1/C=C/O[C@@]2(C)Oc3c(C)c(O)c4c(O)c(c(/C=N/N5CCN(C)CC5)c(O)c4c3C2=O)NC(=O)/C(C)=C\C=C\[C@H](C)[C@H](O)[C@@H](C)[C@@H](O)[C@@H](C)[C@H](OC(C)=O)[C@@H]1C`, the inhibition result with Bacillus subtilis [1], in the assay with Bacillus subtilis [2], in the assay on Bacillus subtilis [3], in the assay with Bacillus subtilis [4] and with Bacillus subtilis [5] was “Active” throughout.
